Results: patent US10363231B2, “Compounds and methods of treating ocular disorders” (CASE WESTERN RESERVE UNIVERSITY, priority 2014, dated 2019)
Read-outs that look alike come from different tables or passages of the source.

What was measured:
[1] = tested on: Abca4^−/−Rdh8^−/− mice; test: Toxicity in treated Abca4−/−Rdh8−/− mice (Table 2); assay type: in vivo; conditions: 4-week-old Abca4−/−Rdh8−/− mice, oral gavage
Method: (§1) Abca4^−/−Rdh8^−/− double knockout mice were generated as previously described. Mice were housed in the animal facility at the School of Medicine, Case Western Reserve University, where they were maintained under either complete darkness or in a 12-h light (˜300 lux) and 12-h dark cycle. All tested primary amines were suspended in 100 μl of soybean oil with less than 10% (v/v) DMSO and were administered by oral gavage with a 22-gauge feeding needle. Experimental manipulations in the dark were done under dim red light transmitted through a Kodak No. 1 safelight filter (transmittance >560 nm). All animal procedures and experiments were approved by the Case Western Reserve University Animal Care Committees and conformed to recommendations of the American Veterinary Medical Association Panel on Euthanasia and the Association of Research for Vision and Ophthalmology.
(§2) For practical reasons, only eight of these leading compounds (QEA-B-001-NH2, B-002-NH2, C-001-NH2, C-003-NH2, C006-NH2, E-002-NH2, TEA-B-002-NH2, and C00-2-NH2) along with retinylamine as a control were selected for further testing in Abca4^−/−Rdh8^−/− mice, an animal model for light-induced retinal degeneration (Table 2). Additionally, two novel amines with moderate inhibition of RPE65 (QEA-A-006-NH2 and QEA-B-003-NI 12) and one with strong inhibition (QEA-A-005-NH2) were added to the first test group for comparison. Mice were gavaged with 1 mg of a test compound and then kept in the dark for 24 h prior to being exposed to bright light (˜10,000 lux) for 1 h. Retinal damage was assessed with OCT that measured the thickness of the outer nuclear layer and by quantification of tissue 11-cis retinal levels. An example is shown for imaging results in FIG. 4A and for 11-cis-retinal quantification in FIG. 4B. Additionally, extracts of livers obtained from treated mice were analyzed by HPLC to estimate the amounts of corresponding amides (FIG. 4C).

[2] = tested on: Abca4^−/−Rdh8^−/− mice; test: Light-induced acute retinal degeneration in Abca4−/−Rdh8−/− mice (OCT, 11-cis-retinal, ERG); assay type: in vivo; conditions: 2 mg; dark 24 h, then 10,000 lux 1 h
[3] = biological target: T1, RPE65 (Bos taurus, UniProt Q28175); test: Retinoid isomerase activity assay (11-cis-retinol production in RPE microsomes); assay type: biochemical, Bovine
T1 construct: from tissue; host or cells: bovine retinal pigment epithelium (RPE) microsomes
Method: (§3) Bovine RPE microsomes were isolated from RPE homogenates by differential centrifugation as previously described. The resulting microsomal precipitate was resuspended in 10 mM Bis-Tris propane/HCl buffer, pH 7.4, to achieve a total protein concentration of […]. Then the mixture was placed in a quartz cuvette and irradiated for 6 min at 4° C. with a ChromatoUVE transilluminator (model TM-15; UVP) to eliminate residual retinoids. After irradiation, DTT was added to the RPE microsomal mixture to achieve a final concentration of 5 mM.
[…] The resulting mixture was pre incubated at room temperature for 5 min. Then 1 μl of all-trans-retinol (in DMF, final concentration 20 μM) was added. The resulting mixture was incubated at 37° C. for 15 min to 2 h. The reaction was quenched by adding 300 μl of methanol, and products were extracted with 300 μl of hexanes. Production of 11-cis-retinol was quantified by normal phase HPLC with 10% (v/v) ethyl acetate in hexanes as the eluent at a flow rate of 1.4 ml·min^−1. Retinoids were detected by monitoring their absorbance at 325 nm and quantified based on a standard curve representing the relationship between the amount of 11-cis-retinol and the area under the corresponding chromatographic peak.
Primary amines of compounds derived from the aldehydes were subsequently tested for their ability to inhibit the RPE65-dependent retinoid isomerization reaction in dose- and time dependent reactions as exemplified by QEB-B-001 (FIG. 3B). Amines were incubated with RPE microsomes in the presence of all-trans-retinol and the 11-cis-retinoid binding protein, CRALBP.
Progress of the enzymatic reaction was monitored by HPLC separation of retinoids and quantification of 11-cis-retinol with a decrease of 11-cis-retinol production reflecting inhibition of RPE65 by a tested amine. […] This moderate inhibition could be enhanced by shortening the polyene chain length (TEA amines) or diminished by introducing an extra positive charge into the tested compounds (QEA-G amines).

[4] = Analysis of retinoid composition in mouse tissues: amide forms in liver by HPLC; assay type: in vivo, mice; conditions: oral gavage; for Protection by amide in liver: 4-week-old Abca4−/−Rdh8−/− mice, dark 24 h, liver extracts by HPLC; for amidation in vivo (accumulation of amide forms in mouse liver): liver HPLC
Method: as §1
Two mg of primary amines were administered by oral gavage to 4-week-old Abca4^−/−Rdh8^−/− mice, which then were kept in the dark for 24 h. Then mice were euthanized, and their livers were homogenized in 1 ml of 10 mM sodium phosphate buffer, pH 7.4, containing 50% methanol (v/v). The resulting mixture was extracted with 4 ml of hexanes. Extracts were dried in vacuo, and reconstituted in 300 μl of hexanes. 100 μl of this solution was analyzed by HPLC as described above for the LRAT activity assay.
as §2

[5] = biological target: T2, LRAT (Bos taurus, UniProt Q9BGL2); test: LRAT activity assay with bovine RPE microsomes (esterification of the corresponding primary alcohols); assay type: biochemical; conditions: percentage of the corresponding primary alcohol esterified by LRAT in 1 h at 37° C; 10 μM; RPE microsomes
T2 construct: incubated with RPF microsomes that served as a source of LRAT enzymatic activity; from tissue; host or cells: bovine retinal pigment epithelium (RPE) microsomes
T2 sequence (Q9BGL2 1-230): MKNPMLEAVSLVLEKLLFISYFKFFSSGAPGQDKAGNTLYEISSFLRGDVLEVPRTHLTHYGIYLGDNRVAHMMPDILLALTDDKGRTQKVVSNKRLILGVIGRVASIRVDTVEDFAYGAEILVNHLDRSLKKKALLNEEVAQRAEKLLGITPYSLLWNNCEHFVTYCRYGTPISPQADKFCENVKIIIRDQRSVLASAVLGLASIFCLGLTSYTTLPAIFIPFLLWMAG
Method: as §3
Two μl of a synthesized primary alcohol or amine dissolved in DMF (final concentration 10 μM) and 2 μl of 1,2-diheptanoyl-sn-glicerol-3-phosphocholine (water, final concentration 1 mM) were added to 200 μl of 10 mM Bis-Tris propane/HCl buffer, pH 7.4, containing 150 μg of RPE microsomes and 1% (v/w) BSA. The resulting mixture was incubated at 37° C. for 1 h. The reaction was quenched by adding 300 μl of methanol. Most reaction products were extracted with 300 μl of hexanes, except for products from the QEA-C-006 and QEA-G groups which were extracted by adding 300 μl of ethyl acetate and 300 μl of water.
Reaction products were separated and quantified by normal phase HPLC (Agilent Sil 5 μm, 4.6 mm×250 mm) in stepwise gradient of ethyl acetate in hexanes (0-15 min, 10%; 20-30 min, 30%) at a flow rate of 1.4 ml·min^−1.
The properties of retinoid derivatives were examined by two standard enzymatic tests, the […] and retinoid isomerization assays. To identify substrates of LRAT, aldehydes were reduced by sodium borohydrate to their corresponding primary alcohols that then were directly used in the esterification assay (FIG. 2B).
The alcohols were incubated with RPF microsomes that served as a source of LRAT enzymatic activity. Products of the enzymatic reaction as well as the remaining substrates were extracted with organic solvents and analyzed by HPLC. The ratio between a substrate and its esterified form was used to measure enzymatic activity efficiency, based on equivalent UV absorption of the substrate and product at their specific UV maxim wavelengths. Compounds classified as ‘good’ LRAT substrates converted at least 50% of their available alcohol substrates into corresponding esters under these experimental conditions, whereas marginal LRAT substrates were converted at less than 5%. Alcohols with a 5-50% conversion ratio were classified as weak substrates. Among 35 tested compounds, 23 were categorized as good and 9 as weak substrates; 3 compounds were not esterified by LRAT (Table 1 and FIG. 2C). […] Moreover, breaking double bond conjugation along the polyene chain or deletion of a C9 and/or a C13 methyl group also was allowed.

[6] = primary amine, decline in 11-cis-retinol production in RPE microsomes, read-out: Inhibition of RPE65

T1 sequence (Q28175 whole entry): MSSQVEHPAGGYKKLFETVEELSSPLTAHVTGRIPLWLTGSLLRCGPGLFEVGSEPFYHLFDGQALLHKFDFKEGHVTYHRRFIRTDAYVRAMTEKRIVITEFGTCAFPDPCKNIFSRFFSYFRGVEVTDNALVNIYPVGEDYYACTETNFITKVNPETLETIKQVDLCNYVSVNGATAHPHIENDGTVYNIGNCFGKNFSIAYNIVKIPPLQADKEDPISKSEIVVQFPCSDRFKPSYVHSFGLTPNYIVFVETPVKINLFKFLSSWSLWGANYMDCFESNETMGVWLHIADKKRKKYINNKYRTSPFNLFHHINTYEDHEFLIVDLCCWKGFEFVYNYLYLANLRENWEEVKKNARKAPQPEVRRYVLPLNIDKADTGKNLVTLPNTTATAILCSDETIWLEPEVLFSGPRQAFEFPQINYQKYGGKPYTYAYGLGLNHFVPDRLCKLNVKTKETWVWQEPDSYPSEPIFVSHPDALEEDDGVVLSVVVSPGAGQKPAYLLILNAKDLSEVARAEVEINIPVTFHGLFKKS

SMILES	Toxicity [1]	protection of ONL (averaged ONL thickness by OCT) [2]	IC50 [3, 6] [µM]	IC50 ([3]; read-out: inhibition of RPE65) [µM]	Protection by amide in liver [4]	LRAT Substrate [5] [%]	inhibition of RPE65 [3]	amidation in vivo (accumulation of amide forms in mouse liver) [4]
CC1=C(/C=C/C=C/C=C/C=C/CN)C(C)(C)CCC1 [QEA-A-005-NH2]	None	protected	< 10	< 10	Strong	100		
COc1ccc(C(=C\C=C\C(C)=C\CN)/C=C/c2ccc(O)cc2)cc1 [QEA-C-006-NH2]	None		> 200		None	50	did not inhibit	not efficiently amidated
COc1ccc(C(=C\C=C\C(C)=C\CN)/C=C/C2=CCCCC2)cc1 [QEA-E-002-NH2]	None		> 200		Weak	100	did not inhibit	not efficiently amidated
CC(C)(C)C(=C\C=C\CN)/C=C/C1=CCCCC1 [TEA-B-002-NH2]	Yes		> 200		None	10	did not inhibit	not efficiently amidated
CC(/C=C/C=C(/c1ccc2ccccc2c1)C(C)(C)C)=C\CN [TEA-C-002-NH2]	Yes		> 200		Strong	20	did not inhibit	efficiently converted into amides
